assay: Human HepG2 cell viability assay in 384 well format; assay type: toxicity, cell-based; set-up: dose 125 nL, time 70.5 hour; concentration not given beside the values; conditions: HepG2 cells, read-out: Inhibition

Structure (SMILES)	cytotoxicity at 70.5 h [%]
O=C(NCc1ccccc1-n1cccn1)N1CCC(N2CCCC2)C1 (stereo unspecified)	-6.47
c1ccc(OCCN2CCc3c(ncn3C3CC3)C2)cc1	-4.85
COCCN1CCN(Cc2cccc(C(=O)N(C)C)c2)CC1	-4.26
Cc1cc(C)n(CC2CCCCN2C(=O)c2ccsc2)n1 (stereo unspecified)	-2.03
Cc1nn(C)c(C)c1CCC(=O)N1CCCC(n2cncn2)C1 (stereo unspecified)	-6.31
CCN(Cc1ccc2c(c1)OCO2)C(=O)Cn1cccnc1=O	-0.305
CCN(Cc1ccc2c(c1)OCCO2)C(=O)Cn1cccnc1=O	-5.36
CC(=O)NC1CCCN(C(=O)NCc2ccc(-n3cccn3)cc2)C1 (stereo unspecified)	-2.4
CCc1noc(C(C)N2CCN(C(=O)CN3CCOCC3)CC2)n1 (stereo unspecified)	0.684
CN1CCCN(C(=O)NCc2cccnc2-n2cccn2)CC1	-0.342
CCC1CCCN(C(=O)NCc2cccnc2-n2cccn2)C1 (stereo unspecified)	-4.16
CNC(=O)COc1ccc(CNCc2c(C)nn(C)c2N(C)C)cc1	-0.911
Cc1nn(-c2ccccc2)nc1C(=O)N1CCCC(n2cccn2)C1 (stereo unspecified)	-1.86
O=C(CN1CCCC(Cn2cncn2)C1)NCCCc1ccccc1 (stereo unspecified)	-2.31
O=C(CN1CCCC(Cn2cncn2)C1)NCCc1cccs1 (stereo unspecified)	0.827
Cc1ccc(CNC(=O)CN2CCOC(Cn3cncn3)C2)s1 (stereo unspecified)	-2.32
CCNc1cc2c(nn1)CCN(C(=O)c1cc3cc(C)ccc3o1)C2	5.36
CCc1nc(C2CCCN2C(=O)c2ccc3c(c2)[nH]c(=O)n3C)no1 (stereo unspecified)	2.37
Cc1nc(C2CCCN2C(=O)c2ccc3c(c2)nc(C)n3C)no1 (stereo unspecified)	3.45
O=S(=O)(CCN1CCc2c(ncn2C2CC2)C1)c1ccccc1	16.5
Cc1cccc(N2CCN(C(=O)NC(C)c3nncn3C)CC2)c1 (stereo unspecified)	20.1
Cc1cc(NC(=O)NCC2COc3ccccc3C2)no1 (stereo unspecified)	52
Cc1noc(C)c1C(=O)NCc1ccc(N2CCC(C)CC2)nc1	1.58

Structure (SMILES)	cytotoxicity at 70.5 h [%]
COc1ncccc1CNC(=O)NC(C)Cn1cccn1 (stereo unspecified)	-14.1
Cc1noc(C)c1CN(C)C(=O)c1ccc(C(F)(F)F)nc1	-0.00923
CCN1CCN(c2ccc(CNC(=O)c3cc(C)on3)cn2)CC1	-4.09
CC(Cn1cccn1)NC(=O)NCc1ccnc(OC2CCCC2)c1 (stereo unspecified)	-8.79
CCn1cc(NC(=O)NCC(c2cccc(F)c2)N(C)C)cn1 (stereo unspecified)	-4.54
Cc1ncsc1C(=O)N(C)Cc1ccncc1	28.4
COc1ccc(C)cc1CNCc1ccc(-n2nc(C)cc2C)nc1	5.93
Cc1ccc(CNCc2ccc(-n3nc(C)cc3C)nc2)cc1	-6.83
Cc1ccc(C)c(OC2CCN(C(=O)c3ccc(O)nc3)CC2)c1	2.43
Cc1ccc(C(=O)N2CCC(Oc3ccc(F)cc3F)CC2)c(=O)[nH]1	31.6
CC(C)(CNC(=O)CCOc1cccc(F)c1)C(N)=O	2.27
CCCN(CC1COc2ccccc2O1)C(=O)CCn1cncn1 (stereo unspecified)	-1.87
COc1cccc(COCC(=O)N2CCC(CC(N)=O)CC2)c1	4.02
Cc1cn2c(n1)CCC(NC(=O)c1ccc(CS(C)(=O)=O)o1)C2 (stereo unspecified)	-2.86
c1ccc(-c2nccc(CNCC3CCCN3c3cccnn3)n2)cc1 (stereo unspecified)	39.7
Cc1nc(CNCC2CCCN2c2cccnn2)cs1 (stereo unspecified)	2.56
Cn1cc(Cl)cc1C(=O)N1CCCN(Cc2cccs2)CC1	4.57
N#CC1(C(=O)NCCCNc2ccc(C(F)(F)F)cn2)CCCC1	5.77
Cc1cnn(CCCNC(=O)N2CCCCC(N3CCCC3)C2)c1 (stereo unspecified)	-6.01
CCN(CC)C(=O)CN(C)C1CCc2ccccc21 (stereo unspecified)	-3.62
CCOCC(O)CN1CCN(C(=O)Cc2ccc3c(c2)CCO3)CC1 (stereo unspecified)	0.715
O=C(Nc1cnn(CCN2CCOCC2)c1)c1ccccc1O	0.705
CCn1c(CN2CCCN(C(=O)OC)CC2)nc2c(F)cccc21	18.8
